Where a name gives a salt, the structure may show the parent alone.
Target: T1, human EP3 receptor (Homo sapiens, UniProt P43115)
T1 construct: expressed in transfected cells; host or cells: CHO K1 (Chinese Hamster Ovary), stably co-transfected with Galpha16 and mitochondrial clytin
T1 sequence (P43115 1-390): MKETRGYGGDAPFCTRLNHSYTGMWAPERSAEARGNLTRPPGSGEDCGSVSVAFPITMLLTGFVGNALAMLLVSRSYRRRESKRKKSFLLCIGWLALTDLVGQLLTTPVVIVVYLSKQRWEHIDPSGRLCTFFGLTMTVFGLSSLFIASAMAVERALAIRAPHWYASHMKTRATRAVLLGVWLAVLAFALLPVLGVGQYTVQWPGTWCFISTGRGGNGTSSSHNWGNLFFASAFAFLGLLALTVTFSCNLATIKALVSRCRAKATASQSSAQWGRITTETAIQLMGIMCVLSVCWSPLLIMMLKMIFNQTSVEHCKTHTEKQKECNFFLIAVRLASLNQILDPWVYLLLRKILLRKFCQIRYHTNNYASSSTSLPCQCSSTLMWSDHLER
Assay: Cellular in vitro assay for determining EP3 receptor activity (human EP3 cell line, sulprostone-stimulated calcium luminescence)
Format: cell-based
Conditions: CHO cells expressing human EP3 and mitochondrial Clytin; antagonist mode, sulprostone at EC50; read-out: EP3 CHO mtCLY ANTAG IC50
How it was run: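 CHO K1 cells stably expressing human EP3 with Gα16 and mitochondrial Clytin, loaded overnight with coelenterazine. Compounds added 10 min before sulprostone at its EC50; antagonism read immediately as reduced calcium-driven luminescence, quadruplicate points.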

Row | IC50 | SMILES
1 | 2.5 nM | COc1ccc(C(C)NC(=O)c2cc3c(=O)[nH]c(-c4ccc(C)c(C)c4)cn3n2)cn1 (stereo not shown) [Example 5-4, 6-(3,4-Dimethylphenyl)-N-[1-(6-methoxypyridin-3-yl)ethyl]-4-oxo-4,5-dihydropyrazolo[1,5-a]pyrazine-2-carboxamide]
2 | 7.45 nM | Cc1c(C(=O)N[C@@H](C)c2cnccn2)nn2c(C)c(-c3ccc4ccccc4c3)[nH]c(=O)c12 [Example 3-66, 3,7-Dimethyl-6-(naphthalen-2-yl)-4-oxo-N-[(7S)-1-(pyrazin-2-yl)ethyl]-4,5-dihydropyrazolo[1,5-a]pyrazine-2-carboxamide]
3 | 6.5 nM | Cc1cccc2ncc(-c3cn4nc(C(=O)N[C@H]5CC[C@H](O)CC5)c(C(C)C)c4c(=O)[nH]3)cc12 [Example 4-32, N-(trans-4-Hydroxycyclohexyl)-3-isopropyl-6-(5-methylquinolin-3-yl)-4-oxo-4,5-dihydropyrazolo[1,5-a]pyrazine-2-carboxamide]
4 | 2.27 nM | CC(C)(C)OC(=O)NCC(NC(=O)c1cc2c(=O)[nH]c(-c3ccc4cccnc4c3)cn2n1)c1ccc(F)cc1 (stereo not shown) [6-29]
5 | 1.4 nM | Cc1cc(-c2cn3nc(C(=O)NC(C)(C)C4CC4)c(C4CC4)c3c(=O)[nH]2)ccc1Cl [6-301]
6 | 7.7 nM | Cc1cccc2ncc(-c3cn4nc(C(=O)N[C@@H]5CCCc6ccccc65)c(C(C)C)c4c(=O)[nH]3)cc12 [Example 4-5, 6-(5-Methylquinolin-3-yl)-4-oxo-3-(propan-2-yl)-N-[(7R)-1,2,3,4-tetrahydronaphthalen-1-yl]-4,5-dihydropyrazolo[1,5-a]pyrazine-2-carboxamide]
7 | 7.65 nM | CN1CC(NC(=O)c2cc3c(=O)[nH]c(-c4ccc5ccccc5c4)cn3n2)(c2ccc(F)cc2)C1 [Example 1-49, N-[3-(4-Fluorophenyl)-1-methylazetidin-3-yl]-6-(naphthalen-2-yl)-4-oxo-4,5-dihydropyrazolo-[1,5-a]pyrazine-2-carboxamide formic acid salt]
8 | 2.05 nM | Cc1c(C(=O)N[C@H]2c3ccccc3C[C@H]2O)nn2c(C)c(-c3ccc4ccccc4c3)[nH]c(=O)c12 [Example 3-67, N-[(7S,2R)-2-Hydroxy-2,3-dihydro-1H-inden-1-yl]-3,7-dimethyl-6-(naphthalen-2-yl)-4-oxo-4,5-dihydropyrazolo[1,5-a]pyrazine-2-carboxamide]
9 | 7 nM | Cc1c(C(=O)NCc2cc[nH]n2)nn2c(C)c(-c3ccc4ccccc4c3)[nH]c(=O)c12 [Example 3-5, 3,7-Dimethyl-6-(naphthalen-2-yl)-4-oxo-N-[(1H-pyrazol-3-yl)methyl]-4,5-dihydropyrazolo[1,5-a]pyrazine-2-carboxamide]
10 | 2.85 nM | Cc1c(C(=O)NC2(c3ccc(F)cc3)CC2)nn2cc(-c3ccc4ccccc4c3)[nH]c(=O)c12 [6-71]
11 | 1.5 nM | Cc1ccc(-c2cn3nc(C(=O)NC(C)(C)C4CC4)c(C4CC4)c3c(=O)[nH]2)cc1Cl [6-280]
12 | 1.25 nM | Cc1ccc(CNC(=O)c2cc3c(=O)[nH]c(-c4ccc5ccccc5c4)cn3n2)cc1 [Example 2-14, N-(4-Methylbenzyl)-6-(2-naphthyl)-4-oxo-4,5-dihydropyrazolo[1,5-a]pyrazine-2-carboxamide]
13 | 1.38 nM | CC(NC(=O)c1nn2cc(-c3ccc4ccccc4c3)[nH]c(=O)c2c1C(F)(F)F)c1cnc(OCC(F)(F)F)cn1 (stereo not shown) [Example 1-117, 6-(2-Naphthyl)-4-oxo-N-[1-[5-(2,2,2-trifluoroethoxy)pyrazin-2-yl]ethyl]-3-(trifluoromethyl)-5H-pyrazolo[1,5-a]pyrazine-2-carboxamide]
14 | 3.05 nM | Cc1cc(-c2cn3nc(C(=O)NC4(c5ccc(F)cc5)CN(C)C4)c(C(F)(F)C(F)(F)F)c3c(=O)[nH]2)ccc1Cl [6-480]
15 | 4.2 nM | CN1CC(NC(=O)c2nn3cc(-c4ccc5c(c4)OCCO5)[nH]c(=O)c3c2C(F)(F)F)(c2ccc(F)cc2)C1 [6-535]
16 | 2.35 nM | CC(NC(=O)c1nn2cc(-c3ccc4ccccc4c3)[nH]c(=O)c2c1C#N)c1ccc(Cl)cc1Cl (stereo not shown) [Example 3-58, 3-Cyano-N-[1-(2,4-dichlorophenyl)ethyl]-6-(2-naphthyl)-4-oxo-5H-pyrazolo[1,5-a]pyrazine-2-carboxamide]

Row | IC50 | SMILES
17 | 4 nM | COc1ccc([C@@H](C)NC(=O)c2cc3c(=O)[nH]c(-c4ccc5c(c4)COCC5)cn3n2)cn1 [Example 1-51, 6-(3,4-Dihydro-1H-isochromen-7-yl)-N-[(1R)-1-(6-methoxypyridin-3-yl)ethyl]-4-oxo-4,5-dihydropyrazolo[1,5-a]pyrazine-2-carboxamide]
18 | 1.95 nM | Cc1cc(-c2cn3nc(C(=O)N[C@H](C)C(C)C)c(C(F)(F)F)c3c(=O)[nH]2)ccc1Cl [6-217]
19 | 1.95 nM | Cc1cccc2ncc(-c3cn4nc(C(=O)NC5CCOC5)c(C(C)C)c4c(=O)[nH]3)cc12 (stereo not shown) [Example 4-21, 3-Isopropyl-6-(5-methyl-3-quinolyl)-4-oxo-N-(tetrahydrofuran-3-yl)-5H-pyrazolo[1,5-a]pyrazine-2-carboxamide]
20 | 2.8 nM | Cc1ccc(-c2cn3nc(C(=O)N[C@H](C)c4ccc(F)cc4)cc3c(=O)[nH]2)cc1Cl [6-81]
21 | 4.75 nM | Cc1c(C(=O)Nc2ccnn2C(C)C)nn2c(C)c(-c3ccc4ccccc4c3)[nH]c(=O)c12 [Example 3-6, 3,7-Dimethyl-6-(naphthalen-2-yl)-4-oxo-N-[1-(propan-2-yl)-1H-pyrazol-5-yl]-4,5-dihydropyrazolo[1,5-a]pyrazine-2-carboxamide]
22 | 5.45 nM | Cc1c(C(=O)NCc2ccccn2)nn2c(C)c(-c3ccc4ccccc4c3)[nH]c(=O)c12 [Example 3-70, 3,7-Dimethyl-6-(naphthalen-2-yl)-4-oxo-N-[(pyridin-2-yl)methyl]-4,5-dihydropyrazolo[1,5-a]pyrazine-2-carboxamide]
23 | 4.75 nM | Cc1ccc(-c2cn3nc(C(=O)NC4CCN(CC(F)F)C4)c(C4CC4)c3c(=O)[nH]2)cc1C (single isomer, unassigned) [6-454]
24 | 1.5 nM | O=C(N[C@@H](c1ccc(F)cc1)C(F)(F)CO)c1nn2cc(-c3ccc(Cl)c(F)c3)[nH]c(=O)c2c1C1CCC1 [6-571]
25 | 1.1 nM | Cc1ccc(-c2cn3nc(C(=O)N[C@@H](c4ccc(F)cc4)[C@@H](O)C(F)(F)F)c(C4CC4)c3c(=O)[nH]2)cc1Cl [6-273]
26 | 8.6 nM | Cc1cc(-c2cn3nc(C(=O)N[C@H](c4ccc(F)cc4)C(C)(C)O)c(C4CC4)c3c(=O)[nH]2)ccc1C(F)(F)F [6-134]
27 | 1.35 nM | Cc1ccc(-c2cn3nc(C(=O)NCC(O)C(F)(F)F)c(C4CC4)c3c(=O)[nH]2)cc1C(F)(F)F (single isomer, unassigned) [6-245]
28 | 5.65 nM | COc1ccc(C(C)NC(=O)c2cc3c(=O)[nH]c(-c4ccc5ccccc5n4)cn3n2)cn1 (stereo not shown) [Example 1-106, N-[1-(6-Methoxypyridin-3-yl)ethyl]-4-oxo-6-(quinolin-2-yl)-4,5-dihydropyrazolo[1,5-a]pyrazine-2-carboxamide]
29 | 0.67 nM | Cc1ccc(-c2cn3nc(C(=O)N[C@@H](c4ccc(F)cc4)C(F)(F)CO)c(C(F)(F)C(F)(F)F)c3c(=O)[nH]2)cc1Cl [6-487]
30 | 2.25 nM | CC(NC(=O)c1nn2cc(-c3ccc4ccccc4c3)[nH]c(=O)c2c1C#N)c1ccc(F)cc1 (stereo not shown) [Example 3-52, 3-Cyano-N-[1-(4-fluorophenyl)ethyl]-6-(2-naphthyl)-4-oxo-5H-pyrazolo[1,5-a]pyrazine-2-carboxamide]
31 | 3.9 nM | CC(NC(=O)c1cc2c(=O)[nH]c(-c3ccc4cccnc4c3)cn2n1)c1ccc(F)c(F)c1 (stereo not shown) [6-28]

Reference: US20220324865A1 (Bayer Aktiengesellschaft, priority 2018, published 2022)
